In patent US4992418A, “Superactive human insulin analogue-[10-Aspartic Acid-B]Human Insulin” (Mount Sinai School of Medicine, priority 1987, dated 1991):

Legend:
[1] = molecular target: T1, insulin receptors in rat liver plasma membranes (Rattus norvegicus, UniProt P15127); test: Insulin receptor binding assay (125I-insulin displacement, rat liver plasma membranes)
T1 construct: Rat liver plasma membranes were prepared as described by Horvat et al; from tissue; host or cells: rat liver plasma membranes
Protocol: Receptor binding assays using rat liver plasma membranes were performed as described by Kitagawa et al., Biochemistry (1984), vol. 23, pp. 1405-1413. Rat liver plasma membranes were prepared as described by Horvat et al., Biochim. Biophys. Acta (1975), vol. 382, pp. 609-620.
Following incubation for 45 min at 24° C., the mixtures were diluted with 2.0 ml of ice cold 0.1M sodium phosphate, pH 7.4, containing 0.1% fraction V bovine serum albumin and immediately filtered through cellulose-acetate filters. The filters were washed twice with the ice cold buffer, dried, and then radioactivity was counted in a scintillation counter using Filtron-X®. Nonspecific binding, defined as radioactivity remaining on the filters when the incubations contained 1×10^-5 M unlabeled insulin, was subtracted from all values.
The data points shown in FIG. 3 represent the mean of triplicate determinations in a representative assay which was performed four times. The maximum binding in these assays amounted to 8.2% of the input radioactivity.

[2] = tested on: Guinea pig antiserum to porcine insulin; conditions: relative to bovine or porcine insulin
Protocol: Guinea pig antiserum to porcine insulin and goat anti-guinea pig-γ globulin were used at a 1:25 dilution in assay buffer (sodium phosphate, 0.04M, pH 7.6, containing 0.154M NaCl, 0.1% gelatin, and 0.01% thimerosal). […] After incubation at room temperature overnight, 0.2 ml of the precipitating antibody (goat anti-guinea pig-γ globulin) was added, and the tubes were further incubated overnight at room temperature. Immune precipitates were collected on cellulose-acetate filters and washed with two successive 1.0 mL portions of ice-cold assay buffer. Filters were dried and radioactivity was counted in a scintillation counter in Filtron-X®. Straight-line plots of Co /Ci were constructed by linear regression analysis as described by Hales et al., Biochem. J. (1963), vol.

insulin receptors = insulin receptors (Rattus norvegicus, UniProt P15127); test: Standard in vitro assays measuring relative insulin potency (summary statements); conditions: in vitro experiments of the Examples
insulin receptors, sequence (P15127 27-759 limits assumed): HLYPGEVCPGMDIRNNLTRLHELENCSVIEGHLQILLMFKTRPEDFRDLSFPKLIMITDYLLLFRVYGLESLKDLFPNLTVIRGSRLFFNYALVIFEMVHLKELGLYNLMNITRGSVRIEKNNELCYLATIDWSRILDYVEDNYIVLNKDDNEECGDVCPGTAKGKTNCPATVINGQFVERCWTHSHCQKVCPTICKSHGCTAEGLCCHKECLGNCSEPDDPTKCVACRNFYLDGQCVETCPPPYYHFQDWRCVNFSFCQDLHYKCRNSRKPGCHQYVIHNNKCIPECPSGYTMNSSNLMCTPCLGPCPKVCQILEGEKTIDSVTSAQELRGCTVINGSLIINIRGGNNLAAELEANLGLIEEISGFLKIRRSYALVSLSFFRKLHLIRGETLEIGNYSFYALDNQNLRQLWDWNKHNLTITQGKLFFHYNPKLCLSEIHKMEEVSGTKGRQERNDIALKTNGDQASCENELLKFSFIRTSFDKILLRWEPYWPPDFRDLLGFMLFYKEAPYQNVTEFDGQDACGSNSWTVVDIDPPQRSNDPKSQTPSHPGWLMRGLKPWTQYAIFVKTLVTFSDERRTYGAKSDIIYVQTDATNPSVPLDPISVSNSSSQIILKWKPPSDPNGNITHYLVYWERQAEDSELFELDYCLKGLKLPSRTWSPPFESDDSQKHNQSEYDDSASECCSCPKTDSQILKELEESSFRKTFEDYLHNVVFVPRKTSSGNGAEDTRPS
insulin receptors, sequence (P15127 764-1383 partner limits assumed): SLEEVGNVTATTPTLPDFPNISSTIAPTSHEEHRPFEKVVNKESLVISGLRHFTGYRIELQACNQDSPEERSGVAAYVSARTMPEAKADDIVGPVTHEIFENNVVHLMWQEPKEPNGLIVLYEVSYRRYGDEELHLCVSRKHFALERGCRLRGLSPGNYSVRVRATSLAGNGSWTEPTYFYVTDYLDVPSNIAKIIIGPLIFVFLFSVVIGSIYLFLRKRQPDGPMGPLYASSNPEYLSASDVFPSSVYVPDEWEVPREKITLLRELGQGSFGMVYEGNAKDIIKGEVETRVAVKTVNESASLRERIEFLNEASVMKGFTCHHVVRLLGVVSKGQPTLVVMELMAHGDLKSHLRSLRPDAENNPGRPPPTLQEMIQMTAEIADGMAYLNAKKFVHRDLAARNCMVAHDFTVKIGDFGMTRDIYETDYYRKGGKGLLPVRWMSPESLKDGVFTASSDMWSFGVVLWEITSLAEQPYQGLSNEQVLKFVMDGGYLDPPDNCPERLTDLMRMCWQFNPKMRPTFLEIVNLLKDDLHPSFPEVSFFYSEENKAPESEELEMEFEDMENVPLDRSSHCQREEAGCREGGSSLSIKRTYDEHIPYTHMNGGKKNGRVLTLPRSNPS

T1 sequence (P15127 27-759 limits assumed): as the sequence (P15127 27-759 limits assumed) above
T1 sequence (P15127 764-1383 partner limits assumed): as the sequence (P15127 764-1383 partner limits assumed) above
Protocol for rat adipocytes: The assays measured the ability of the insulin analogue as compared to bovine insulin to convert, [3-^3 H] glucose into lipids.
Adipocytes were prepared by incubating epididymal and perirenal fat pads obtained from male rats weighing 200-300 g with 1.0 mg/ml collagenase for 60 min at 37° C., followed by filtration through gauze and then through fine-mesh silk. Cells were washed twice by flotation in a clinical centrifuge before suspension for use. The incubation medium was Krebs-Ringer bicarbonate containing half the recommended calcium, 0.5 mM glucose, and 3% fatty acid free bovine serum albumin, with 95% O2 -5% CO2 as the gas phase. […] Cells were preincubated for 45 min at 37° C. before the addition of [3-^3 H] glucose. Incubation was continued for 60 min and stopped by the addition of 0.2 ml of 5N H2 SO4 and 0.2 ml of corn oil to aid in the extraction of lipids. Samples were extracted with 10 ml of Soluscint-0® for 30 min at room temperature before counting the radioactivity in a scintillation counter. […] Zero and 100% stimulation of lipogenesis were defined as radioactivity observed in the absence and presence, respectively, of 9.1×10^-10 M insulin (5.5 ng/ml).
Stimulation, expressed as percent of maximum, was plotted as a function of the agonist concentration. […]

Shape of dose response curves in receptor binding ([1]; compared with bovine insulin, FIG. 3): essentially parallel | Binding to the insulin receptor relative to natural insulins ([1]; more tightly than natural insulins): about five | Relative potency: concentration ratio required to inhibit 50% of specific 125I-insulin binding ([1]; relative to bovine insulin, rat liver plasma membranes, assay performed four times): about 534±146% | In vitro activity relative to natural insulin (in words) (insulin receptors): several fold more active
Substance: [10-Aspartic acid-B] human insulin
Potency in radioimmunoassay (ratio of slopes of Co/Ci plots) [2]: approximately equal potency | Agonist character / maximum stimulation of lipogenesis (rat adipocytes; compared with natural bovine insulin, FIG. 4): full agonist | Relative potency: concentration ratio required to produce 50% of maximum stimulation of lipogenesis (rat adipocytes; relative to bovine insulin, isolated rat adipocytes, assays performed four times): 435±144%
